From patent publication US20210330756A1, “Acetylation of Miro1” (University of South Carolina, priority 2020, published 2021)

Tested on: axon shaft mitochondria of DRG neurons
Experiment: FRAP of Mito-GFP in proximal axon shaft segments of DRG neurons
Type: cell-based, rat
From the text: To determine if the effect of growth inhibitors on mitochondrial recovery was limited to distal axons, we performed FRAP on more proximal segments of the axon shaft in DRG neurons expressing Mito-GFP. For analyses of recovery, the bleached ROIs were divided into four subregions along the axon length so that we could distinguish anterograde from retrograde transport-driven Mito-GFP recovery. […] Since this effect of MAG-Fc on recovery could derive from either axons or cell body, we cultured dissociated DRGs in microfluiclic devices where we could limit exposure to MAG-Fc and TubA to the axons.
Mito-KR- and Mito-GFP-expressing DRG neurons were used for FRAP analyses at 48-72 h after transfection. To evaluate mitochondrial motility in Mito-KR-expressing neurons, Mito-KR signals were photobleached using continual exposure to an argon laser set at 594 nm for 30 s (100% laser power) The bleached ROI was then monitored for recovery using an argon laser set at 580 nm every 10 s over 16 min (13% laser power). […]
Vesicle trafficking was quantified using differential ImageJ Difference Tracker Plug-in (Andrews et al., 2010). 50-80-μm long unbranched axon segments at approximately the mid-region between growth cone and cell body were analyzed. […] The distance between the growth tip at end of the post-CALI sequence and the pre-CALI baseline was measured using LAS-X software. […]

## CN1CCc2c(c3ccccc3n2Cc2ccc(C(=O)NO)cc2)C1 [TubA, tubastatin]
HDAC6 inhibition with TubA
  effect on MAG-Fc's attenuation of axonal Mito-GFP recovery (axon shaft): prevented by HDAC6 inhibition
TubA-treated cultures
  Mito-GFP recovery pattern along axon shaft: more rapid recovery in proximal segments
